Experimental data as given in PubChem BioAssay AID248 (DTP/NCI, 2004).
Values joined by “and” are separate entries in the source; they are usually repeats but may differ in a detail not shown here. Identical values can stand only once. Toxic doses and inconclusive results are not listed. Cut-off read from the data, not from the text of the source: active = T/C of 150% or more; inactive = T/C below 125%.

Tested on: L1210 leukemia ip in BDF1 mice, survival T/C
Assay: NCI In Vivo Anticancer Drug Screen. Data for tumor model L1210 Leukemia (intraperitoneal) in B6D2F1 (BDF1) mice
Details: endpoint: mean survival time, higher = longer survival
Outline: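 Antitumor effect is assessed in tumor-bearing animals. Survival in the compound arm is compared with a vehicle-dosed control arm and expressed as their quotient.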

[1] = dose: 100.0 mg/kg/injection, schedule: Q04DX003 (ip), vehicle: saline
[2] = dose: 200.0 mg/kg/injection, schedule: Q04DX003 (ip), vehicle: saline
[3] = dose: 400.0 mg/kg/injection, schedule: Q04DX003 (ip), vehicle: saline
[4] = dose: 100.0 mg/kg/injection, schedule: Q04DX002 (ip), vehicle: saline with Tween-80
[5] = dose: 200.0 mg/kg/injection, schedule: Q04DX002 (ip), vehicle: saline with Tween-80
[6] = dose: 400.0 mg/kg/injection, schedule: Q04DX002 (ip), vehicle: saline with Tween-80
[7] = dose: 100.0 mg/kg/injection, schedule: Q01DX001 (ip), vehicle: saline
[8] = dose: 50.0 mg/kg/injection, schedule: Q01DX001 (ip), vehicle: saline
[9] = dose: 200.0 mg/kg/injection, schedule: Q01DX001 (ip), vehicle: saline

Measured: T/C

CC(=O)OCC1OC(O)C(NC(=O)C(F)(F)F)C(OC(C)=O)C1OC(C)=O (centres undefined)
inactive: dose: 12.5 mg/kg/injection, schedule: Q04DX003 (ip), vehicle: saline 109 % of control | dose: 25.0 mg/kg/injection, schedule: Q04DX003 (ip), vehicle: saline 96 % of control

Nc1c(S(=O)(=O)O)ccc2c1C(=O)c1ccccc1C2=O
inactive: dose: 100.0 mg/kg/injection, schedule: Q01DX009 (ip), vehicle: saline 90 % of control | [1] 101 % of control | dose: 200.0 mg/kg/injection, schedule: Q01DX009 (ip), vehicle: saline 97 % of control | [2] 96 % of control | dose: 400.0 mg/kg/injection, schedule: Q01DX009 (ip), vehicle: saline 92 % of control | [3] 91 % of control

CCOC(=O)COCC(=O)OCC
inactive: [4] 98 % of control | [5] 98 % of control | [6] 102 % of control

CC1(C)Oc2c(ccc(O)c2CN2CCOCC2)C2=C1CCCC2
inactive: dose: 100.0 mg/kg/injection, schedule: Q01DX001 (ip), vehicle: carboxymethylcellulose (CMC) 93 % of control | dose: 200.0 mg/kg/injection, schedule: Q01DX001 (ip), vehicle: carboxymethylcellulose (CMC) 96 % of control | dose: 400.0 mg/kg/injection, schedule: Q01DX001 (ip), vehicle: carboxymethylcellulose (CMC) 91 % of control

O=[N+]([O-])/C=C\c1ccc(/C=C/[N+](=O)[O-])cc1
inactive: dose: 1.5 mg/kg/injection, schedule: Q01DX009 (ip), vehicle: other 95 % of control | dose: 1.5 mg/kg/injection, schedule: Q04DX003 (ip), vehicle: other 101 % of control | dose: 3.0 mg/kg/injection, schedule: Q01DX009 (ip), vehicle: other 93 % of control | dose: 3.0 mg/kg/injection, schedule: Q04DX003 (ip), vehicle: other 101 % of control | dose: 6.0 mg/kg/injection, schedule: Q04DX003 (ip), vehicle: other 98 % of control

CCc1nc(N[N+](=O)[O-])nc(CC)c1-c1ccc([N+](=O)[O-])cc1O
inactive: [4] 97 % of control | [5] 87 % of control | [6] 95 % of control

N#CC(OC(=O)c1ccccc1)c1ccc([N+](=O)[O-])cc1 (centres undefined)
inactive: [7] 102 % of control

O=C1OC(=O)C(Cl)=C1Cl
inactive: dose: 25.0 mg/kg/injection, schedule: Q04DX002 (ip), vehicle: saline with Tween-80 97 % of control | dose: 50.0 mg/kg/injection, schedule: Q04DX002 (ip), vehicle: saline with Tween-80 93 % of control | [4] 104 % of control and 112 % of control

N#Cc1ccc(C(=O)C=C(C(F)(F)F)C(F)(F)F)cc1
inactive: dose: 6.25 mg/kg/injection, schedule: Q01DX009 (ip), vehicle: other 95 % of control | dose: 12.5 mg/kg/injection, schedule: Q01DX009 (ip), vehicle: other 98 % of control

CCOC(=O)c1cc(=O)n(-c2ccc([N+](=O)[O-])cc2)n1C
inactive: dose: 100.0 mg/kg/injection, schedule: Q04DX003 (ip), vehicle: saline with Tween-80 94 % of control | dose: 200.0 mg/kg/injection, schedule: Q04DX003 (ip), vehicle: saline with Tween-80 92 % of control | dose: 400.0 mg/kg/injection, schedule: Q04DX003 (ip), vehicle: saline with Tween-80 94 % of control

CN(C)[C@@H]1C(=O)C(C(=O)NCNc2nc(=S)c3[nH]cnc3[nH]2)=C(O)[C@@]2(O)C(=O)C3=C(O)c4c(O)cccc4[C@@](C)(O)[C@H]3C[C@@H]12
inactive: dose: 75.0 mg/kg/injection, schedule: Q01DX Z (ip), vehicle: carboxymethylcellulose (CMC) 119 % of control | dose: 125.0 mg/kg/injection, schedule: Q01DX Z (ip), vehicle: carboxymethylcellulose (CMC) 121 % of control | dose: 250.0 mg/kg/injection, schedule: Q01DX Z (ip), vehicle: carboxymethylcellulose (CMC) 95 % of control

Nc1nc2ncc(C(=O)O)nc2c(=O)[nH]1
inactive: dose: 50.0 mg/kg/injection, schedule: Q04DX003 (ip), vehicle: saline 98 % of control | [1] 97 % of control and 104 % of control | [3] 105 % of control

C=CCCCCCCCCO
inactive: [8] 98 % of control | [7] 95 % of control | [9] 95 % of control

COc1ccc(-n2c(=S)[nH]c3ccccc3c2=O)cc1
inactive: dose: 100.0 mg/kg/injection, schedule: Q01DX009 (ip), vehicle: other 107 % of control | [1] 95 % of control | dose: 200.0 mg/kg/injection, schedule: Q01DX009 (ip), vehicle: other 96 % of control | [2] 91 % of control | dose: 400.0 mg/kg/injection, schedule: Q01DX009 (ip), vehicle: other 102 % of control | [3] 91 % of control

NCCCC(N)C(=O)NCCCCCCNCCCCCCNC(=O)C(N)CCCN (centres undefined)
inactive: dose: 0.38 mg/kg/injection, schedule: Q01DX Z (ip), vehicle: saline 94 % of control | dose: 0.75 mg/kg/injection, schedule: Q01DX Z (ip), vehicle: saline 102 % of control | dose: 1.5 mg/kg/injection, schedule: Q01DX Z (ip), vehicle: saline 98 % of control | dose: 3.0 mg/kg/injection, schedule: Q01DX Z (ip), vehicle: saline 100 % of control and 106 % of control | dose: 10.0 mg/kg/injection, schedule: Q01DX Z (ip), vehicle: saline 93 % of control | dose: 30.0 mg/kg/injection, schedule: Q01DX Z (ip), vehicle: saline 96 % of control | [8] 101 % of control | [7] 98 % of control | dose: 100.0 mg/kg/injection, schedule: Q01DX Z (ip), vehicle: saline 91 % of control | [9] 95 % of control

CN=C(NCCc1ccccc1)c1ccc(NC(=O)c2ccc(C(=O)Nc3ccc(C(=NC)NCCc4ccccc4)cc3)cc2)cc1
inactive: dose: 3.75 mg/kg/injection, schedule: Q01DX Z (ip), vehicle: saline 102 % of control | dose: 7.5 mg/kg/injection, schedule: Q01DX Z (ip), vehicle: saline 105 % of control

O=C(CN1CCCCC1Cl)c1ccccc1 (centres undefined)
inactive: [7] 105 % of control | [1] 100 % of control

C[N+](C)(C)CCCBr
inactive: dose: 10.0 mg/kg/injection, schedule: Q01DX001 (ip), vehicle: saline 112 % of control | dose: 20.0 mg/kg/injection, schedule: Q01DX001 (ip), vehicle: saline 89 % of control

O=C(O)CC(=O)c1ccc(I)cc1
inactive: dose: 75.0 mg/kg/injection, schedule: Q01DX001 (ip), vehicle: saline 94 % of control

O=NC1C(Cl)C2CC1C1COCC21 (centres undefined)
inactive: dose: 100.0 mg/kg/injection, schedule: Q01DX001 (ip), vehicle: Klucel (hydroxypropylcellulose) (HPC) 97 % of control | dose: 200.0 mg/kg/injection, schedule: Q01DX001 (ip), vehicle: Klucel (hydroxypropylcellulose) (HPC) 90 % of control | dose: 400.0 mg/kg/injection, schedule: Q01DX001 (ip), vehicle: Klucel (hydroxypropylcellulose) (HPC) 89 % of control

NC(=S)N/N=C\c1c[nH]c2cc(C(F)(F)F)ccc12
inactive: dose: 5.0 mg/kg/injection, schedule: Q01DX001 (ip), vehicle: carboxymethylcellulose (CMC) 101 % of control | dose: 10.0 mg/kg/injection, schedule: Q01DX001 (ip), vehicle: carboxymethylcellulose (CMC) 95 % of control | dose: 20.0 mg/kg/injection, schedule: Q01DX001 (ip), vehicle: carboxymethylcellulose (CMC) 101 % of control | dose: 40.0 mg/kg/injection, schedule: Q01DX001 (ip), vehicle: carboxymethylcellulose (CMC) 101 % of control

CC1(C)CC1(Br)c1ccccc1 (centres undefined)
inactive: [7] 96 % of control | [9] 96 % of control | dose: 400.0 mg/kg/injection, schedule: Q01DX001 (ip), vehicle: saline 101 % of control

O=C(COc1ccc(Cl)cc1Cl)Nc1ccc2ccccc2c1
inactive: dose: 100.0 mg/kg/injection, schedule: Q04DX002 (ip), vehicle: saline 95 % of control and 96 % of control | dose: 200.0 mg/kg/injection, schedule: Q04DX002 (ip), vehicle: saline 103 % of control | dose: 400.0 mg/kg/injection, schedule: Q04DX002 (ip), vehicle: saline 107 % of control and 92 % of control

CCCNS(=O)(=O)c1ccc(Cl)c([N+](=O)[O-])c1
inactive: dose: 12.5 mg/kg/injection, schedule: Q04DX003 (ip), vehicle: Klucel (hydroxypropylcellulose) (HPC) 100 % of control | dose: 25.0 mg/kg/injection, schedule: Q04DX003 (ip), vehicle: Klucel (hydroxypropylcellulose) (HPC) 97 % of control | dose: 50.0 mg/kg/injection, schedule: Q04DX003 (ip), vehicle: Klucel (hydroxypropylcellulose) (HPC) 100 % of control | dose: 100.0 mg/kg/injection, schedule: Q04DX003 (ip), vehicle: Klucel (hydroxypropylcellulose) (HPC) 98 % of control | dose: 200.0 mg/kg/injection, schedule: Q04DX003 (ip), vehicle: Klucel (hydroxypropylcellulose) (HPC) 103 % of control

CN(C)CCOC(=O)c1ccccc1C=O
inactive: dose: 100.0 mg/kg/injection, schedule: Q04DX002 (ip), vehicle: Klucel (hydroxypropylcellulose) (HPC) 105 % of control | dose: 200.0 mg/kg/injection, schedule: Q04DX002 (ip), vehicle: Klucel (hydroxypropylcellulose) (HPC) 98 % of control | dose: 400.0 mg/kg/injection, schedule: Q04DX002 (ip), vehicle: Klucel (hydroxypropylcellulose) (HPC) 102 % of control
